{
  "source": "patent US20060177553A1",
  "about": "“Method of powdering nonsugar component and powdering base” (priority 2003, published 2006)",
  "assay_type_in_all_cases": "physicochemical",
  "key": {"[1]": {"experiment": "Hygroscopicity of the product"}, "[2]": {"experiment": "Solubility in water of the product"}, "[3]": {"experiment": "Reducing power (DE, Somogyi-Nelson method)", "description": "A reagent grade maltotetraose (purity 97.0% or higher), commercialized by Hayashibara Biochemical Laboratories Inc., Okayama, Japan, was prepared into 20% solution and admixed with two units/g-saccharide of non-reducing saccharide-forming enzyme, disclosed in Japanese Patent No. 44695/81, and followed enzymatic reaction at 46° C. for 48 hours, and the saccharide solution containing 79.8% of α-maltosyl α,α-trehalose, d.s.b., was obtained. After adjusting the pH to 6.0, the saccharide solution was admixed with 10 units/g-saccharide of β-amylase, commercialized by Nagase & Co., Ltd., Osaka, Japan, and followed enzymatic reaction at 50° C. for 48 hours to hydrolyze maltotetraose. After autoclaving at 120° C. for 10 minutes, the reaction mixture was cooled and filtrated. The resulting filtrate was subjected to a column chromatography using “XT-1016 (Na^+-form, degree of crosslinking 4%)”, a strong acid cation-exchanger resin commercialized by Rohm and Hass Japan K.K., Fukushima, Japan, and collected α-maltosyl α,α-trehalose high content fractions. The saccharide solution was purified, concentrated, and spray-dried to prepare an amorphous powdery α-maltosyl α,α-trehalose high content base for the powderization."}},
  "data": [
    {"molecule": "OC[C@H]1O[C@H](O[C@H]2O[C@H](CO)[C@@H](O[C@H]3O[C@H](CO)[C@@H](O[C@H]4O[C@H](CO)[C@@H](O)[C@H](O)[C@H]4O)[C@H](O)[C@H]3O)[C@H](O)[C@H]2O)[C@H](O)[C@@H](O)[C@@H]1O", "note": "[Example A-5, α-maltosyl α,α-trehalose]", "values": [
      {"measurement": "hygroscopicity", "setting": "[1]", "value": "low"},
      {"measurement": "solubility in water", "setting": "[2]", "value": "satisfactory"},
      {"measurement": "reducibility", "setting": "[3]", "value": "no reducibility"},
      {"measurement": "reducing power", "setting": "[3]; Somogyi-Nelson method", "value": "less than the detection limit"}
    ]}
  ]
}
